Source: paper PMC5927452, “Gadoxetic acid–enhanced magnetic resonance imaging to predict paritaprevir-induced hyperbilirubinemia during treatment of hepatitis C” (PLoS ONE, 2018)

How the values were obtained:
[1] = Plasma paritaprevir concentration 7 d after start of OBV/PTV/r treatment (LC-MS/MS); type: in vivo, human; conditions: OBV/PTV/r 25/150/100 mg orally once daily; for Log10 Ctrough: fasting steady-state plasma trough, day 7, LC-MS/MS, mean ± SD; for AUC (AUC0-6 h): plasma, day 7, 0-6 h after dosing with breakfast, trapezoidal rule
Protocol: This was a single-center, exploratory, prospective study. The study was approved by both the ethical review board of Juntendo University Faculty of Medicine (Jundai-Irin No-2016135) and the Ethics Committee for Human Genome/Gene Analysis Research at Kanazawa University Graduate School of Medical Sciences (No. 2016–004, serial No. 432) and was carried out in accordance with the 1964 Declaration of Helsinki and its later amendments. The study was also registered with UMIN clinical trials as UMIN000022587. Written informed consent was obtained from all patients before enrollment. The study enrolled adult patients with HCV genotype 1b chronic hepatitis or compensated liver cirrhosis using OBV/PTV/r (VIEKIRAX®; AbbVie, Inc., North Chicago, Illinois, USA) at Juntendo University Nerima Hospital. Analysis of resistance-associated variations of the NS5A Y93H substitutions in the baseline sequence was performed in a commercial laboratory (SRL, Inc., Tokyo, Japan), and the patients with the mutant type of NS5A Y93H were excluded. Patients with renal dysfunction (estimated glomerular filtration rate < 40 ml/min/1.73 m^2) were excluded. A precaution in OBV/PTV/r treatment is coadministration of statin medications. Patients taking simvastatin and atorvastatin were excluded; no other patients were taking any other type of statin. Consequently, this study involved 27 consecutive Japanese patients (8 males and 19 females), with ages ranging from 30 to 83 years, treated between June 2016 and July 2017. Twenty patients with chronic hepatitis and seven patients with liver cirrhosis were included. All patients were treated with OBV/PTV/r, at a dose of 25/150/100 mg, administered orally once daily.
Fasting steady-state plasma trough concentrations (Ctrough) of paritaprevir were determined from blood samples obtained 7 d after the start of treatment. The patients were given the same breakfast of 338 kcal, with 15% of calories from protein, 60% from fat, and 25% from carbohydrates. After the meal, the patients took the drugs orally. Paritaprevir concentrations at 2, 4, and 6 h after dosing were determined. Blood samples were centrifuged within 30 min at 1,500 rpm for 10 min at 4°C, and plasma concentrations of paritaprevir were determined using liquid chromatography–tandem mass spectrometry, as described. The area under the plasma concentration curve from 0 to 6 h (AUC0–6 h) of paritaprevir after dosing was calculated using the trapezoidal rule.

[2] = regimen of paritaprevir/ritonavir, ombitasvir, and dasabuvir with or without ribavirin; mainly indirect bilirubin, without elevations in liver enzymes; cited from earlier work
Protocol: The regimen of ombitasvir, paritaprevir, and ritonavir (OBV/PTV/r) without or with ribavirin has been available in Japan since 2015 and 2016, respectively. Ritonavir is included for its booster effect on paritaprevir by cytochrome P450 3A inhibitor. Paritaprevir, a nonstructural (NS)3/4A protease inhibitor, is mainly eliminated via hepatobiliary excretion. It is carried into the hepatocyte by hepatic transporters including organic anion–transporting polypeptides (OATP)1B1 and OATP1B3, located at the sinusoidal membranes of hepatocytes. These transporters also carry unconjugated bili ...

[3] = patients with hyperbilirubinemia (N = 7)
[4] = patients without hyperbilirubinemia (N = 20)

What does the source list for Cc1cnc(C(=O)N[C@H]2CCCCC/C=C\[C@@H]3C[C@@]3(C(=O)NS(=O)(=O)C3CC3)NC(=O)[C@@H]3C[C@@H](Oc4nc5ccccc5c5ccccc45)CN3C2=O)cn1 [paritaprevir]?
Log10 Ctrough [1, 3]: 2.768 ± 0.747 ng/ml; AUC (AUC0-6 h) [1, 3]: 37224 ± 21015 ng·h/mL; Log10 Ctrough [1, 4]: 2.169 ± 0.484 ng/ml; AUC (AUC0-6 h) [1, 4]: 31441 ± 21727 ng·h/mL; patients with elevation in total bilirubin (≥ 2.25 mg/dl) [2]: 23%
